What was measured:
XBP1s = assay: Overlap of compound-induced genes with dox-dependent XBP1s activation in HEK293DAX cells; type: cell-based, human
Description: (§1) Cells were lysed and total RNA collected using the RNeasy mini kit, according to manufacturer's instructions (Qiagen). Conventional RNA-seq was conducted via BGI Americas on the BGI Proprietary platform, providing single-end 50 bp reads at 20 million reads per sample. Alignment of sequencing data was done using DNAstar Lasergene SeqManPro to the GRCh37. p 13 human genome reference assembly, and assembly data were imported into ArrayStar 12.2 with QSeq (DNAStar Inc.) to quantify the gene expression levels and normalization to reads per kilobase per million (RPKM). Differential expression analysis and statistical significance calculations between different conditions was assessed using “DESeq” in R, compared to vehicle-treated cells, using a standard negative binomial fit of the RPKM data to generate Fold Change quantifications.
These cells stably express both doxycycline (dox)-inducible XBP1s and trimethoprim (TMP) regulated DHFR.ATF6, allowing stress-independent activation of XBP1s and/or ATF6 signaling through addition of the activating ligands dox or TMP, respectively^8.

PERK geneset = assay: RNAseq geneset analysis in HEK293T cells, PERK geneset; type: cell-based, human; conditions: 6 h
Description: as §1
The purpose of this example was to define the ability of the compounds to selectively induce expression of IRE1/XBP1s target genes: for this purpose, RNAseq was performed on HEK293T cells that had been treated with compound No. 198, 474, or 970 for 6 h. As a control, RNAseq was performed on cells that had been treated with the global UPR activator Tg. […] These include the ER stress-responsive transcription factor XBP1 and the ER proteostasis factors SEC24D, […], and HERPUD1^8.
The next step defined the selectivity of the compounds for IRE1/XBP1s signaling relative to other arms of the UPR. […] To overcome this challenge, the expression of individual genes that are included in these genesets were normalized to the expression observed in Tg-treated cells (Tg representing 100% activation of these genes). It was therefore possible to directly compare gene expression without complications arising from differential expression^42.

[1] = test system: stress-responsive signaling pathways; assay: Gene Ontology and stress-responsive geneset analysis of RNAseq in HEK293T cells; type: cell-based, human
Description: as §1

ER proteostasis factors = assay: RNAseq expression of 124 proteostasis factors; type: cell-based, human
Description: as §1
One of the mechanisms by which IRE1/XBP1s activation is protective is through the targeted transcriptional remodeling of ER proteostasis pathways. Because it was observed that compounds such as 474 and 970 selectively activate IRE1/XBP1s signaling, it was desired to confirm that these compounds similarly promote targeted ER proteostasis network remodeling. […]

secreted Aβ = assay: Aβ ELISA of media conditioned on CHO 7PA2 cells (V717F APP); type: cell-based; conditions: CHO 7PA2, 10 μM
Description: (§2) FIGS. 5A-5D. […] Cells were treated for 18 hours, media was then replaced and conditioned in the presence of treatments for 24 hours before harvesting for ELISA assay. Error bars represent SEM for n=3 replicates. Statistics calculated from one-tailed Student's t-test. *p<0.05, **p<0.01, ***p<0.001 (FIG. 5A). Quantification of media and lysate immunoblots from 474 treatment (10 μM) of APP. Error bars represent Standard Deviation for n=3 replicates. Statistics calculated from one-tailed Student's t-test. *p<0.05, **p<0.01 ***p<0.001 (FIG. 5B). Plot showing fraction of total remaining APP at each time point after S35 metabolic labeling of newly synthesized protein, accounting for the sum of APP in lysate and media. Error bars represent Standard Deviation for n=3 replicates. Statistics calculated from one-tailed Student's t-test. *p<0.05, **p<0.01, ***p<0.001 (FIG. 5C). Plot showing fraction of secreted APP collected at 2 hours after metabolic labeling. Error bars represent Standard Deviation for n=3 replicates. Statistics calculated from one-tailed Student's t-test. *p<0.05, **p<0.01, ***p<0.001 (FIG. 5D).
(§3) 7PA2 or 7WD10 cells were cultured on 96-well plates (Corning) and treated with IRE1 activating compounds +/−4 μ8c overnight. The medium was then replaced at 50% volume with treatment remaing, culture medium was collected after 24 hours. The medium was analyzed by an AP ELISA as follows. Monoclonal 6E10 anti-Aβ(residues 1-17) mouse IgG1, (Biolegend) was coated in […] carbonate buffer, pH 9.6, at 4° C. overnight on high binding assay black plates (Costar), washed with TBST (tris buffered saline with 0.05% Tween 20) and blocked with 5% non-fat milk in TBST. Samples and standards (condition 7PA2 media) were incubated for 1.5 hr, followed by addition of 4G8 antibody [anti-Aβ residues 17-24, mouse IgG2b (Biolegend)] conjugated to horseradish peroxidase (hrp) and incubated for 1.5 hr at 25° C. After washing, ABM substrate was added, followed by detection with an absorbance plate reader.
(§4) ELISA was used to monitor Aβ in media conditioned on a CHO cell line stably expressing the destabilized, disease-associated V717F APP mutant (CHO^7PA2)^45 treated with or without compounds 198, 474, and 970. […] The reduction in A secretion can be attributed to IRE1 activation because the reduced extracellular accumulation of Aβ is blocked by co-treatment with the active site IRE1 inhibitor 4 μ8c (FIG. 5A).

extracellular Aβ = assay: Aβ in media conditioned on CHO 7WD10 cells (wild-type APP); type: cell-based; conditions: CHO 7WD10, APP WT
Description: as §3, §4

CHO 7PA2 cells = assay: CHO 7PA2 viability; type: cell-based
APP = APP immunoblots of lysates and conditioned media of CHO 7PA2 cells; type: cell-based; conditions: CHO 7PA2, 10 μM
Description: as §2, with “5D). […]” for “5D).”

O=C(CN(Cc1ccc(Cl)cc1)S(=O)(=O)c1cccnc1)N1CCc2ccccc21 [Compound 970]
induction of most non-overlapping genes (XBP1s): < 1.3 fold | overlap of genes induced >1.2 fold with dox-dependent XBP1s activation (XBP1s): > 60% | top 100 induced genes overlapping with genes induced by dox-dependent XBP1s activation (XBP1s): majority | expression of the PERK geneset (PERK geneset): did not demonstrate this effect | Gene Ontology analysis of induced genes [1]: primarily induce expression of genes annotated with GO terms related to ER stress and the UPR | activation of other stress responsive signaling pathways apart from IRE1/XBP1s [1]: do not significantly activate | remodeling of ER proteostasis factors relative to other compartments (ER proteostasis factors): selective remodeling | Aβ in conditioned media relative to control conditioned media (secreted Aβ): 50% | extracellular Aβ in conditioned media (extracellular Aβ): reduced extracellular Aβ | CHO 7PA2 viability (CHO 7PA2 cells): did not significantly influence

Cc1ccc(OCCN(C)C(=O)Cn2cc(NC(=O)CCOc3ccccc3)cn2)cc1 [Compound 474]
overlap of genes induced >1.2 fold with dox-dependent XBP1s activation (XBP1s): > 80% | top 100 induced genes overlapping with genes induced by dox-dependent XBP1s activation (XBP1s): majority | expression of the PERK geneset (PERK geneset): did not demonstrate this effect | Gene Ontology analysis of induced genes [1]: primarily induce expression of genes annotated with GO terms related to ER stress and the UPR | activation of other stress responsive signaling pathways apart from IRE1/XBP1s [1]: do not significantly activate | APP levels in lysates and conditioned media (APP): reduced APP levels in both lysates and conditioned media | remodeling of ER proteostasis factors relative to other compartments (ER proteostasis factors): selective remodeling | Aβ in conditioned media relative to control conditioned media (secreted Aβ): 50% | extracellular Aβ in conditioned media (extracellular Aβ): reduced extracellular Aβ | CHO 7PA2 viability (CHO 7PA2 cells): did not significantly influence

CCOC(CNC(=O)C1CCCN(Cc2nc(-c3ccc(Cl)cc3)oc2C)C1)OCC (stereo not drawn) [Compound 198]
overlap of genes induced >1.2 fold with dox-dependent XBP1s activation (XBP1s): less overlap | expression of the PERK geneset (PERK geneset): increased expression of the PERK geneset | Gene Ontology analysis of induced genes [1]: primarily induce expression of genes annotated with GO terms related to ER stress and the UPR | activation of other stress responsive signaling pathways apart from IRE1/XBP1s [1]: to a lesser extent | Aβ in conditioned media relative to control conditioned media (secreted Aβ): 50% | extracellular Aβ in conditioned media (extracellular Aβ): reduced extracellular Aβ | CHO 7PA2 viability (CHO 7PA2 cells): did not significantly influence

— US11426402B2, “IRE1 activating compounds for use in therapy” (The Scripps Research Institute, priority 2019, dated 2022)
